PubChem BioAssay (NCI)
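Exposure lasted 48 hours, with cells grown in 96-well plates and compounds tested at five concentrations. GI50 = concentration required for 50% inhibition of growth. Definition used: TGI = concentration required for complete inhibition of growth.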

Experiments:
Assay in all cases: NCI-60 cell line screen, 48 h
RXF 393 renal = test system: RXF 393 renal
A549 NSCLC = test system: A549 NSCLC
OVCAR-4 ovarian = test system: OVCAR-4 ovarian
MCF7 breast = test system: MCF7 breast
SK-OV-3 ovarian = test system: SK-OV-3 ovarian
SF-539 CNS = test system: SF-539 CNS
TK-10 renal = test system: TK-10 renal
UACC-257 melanoma = test system: UACC-257 melanoma
HS 578T breast = test system: HS 578T breast
SN12C renal = test system: SN12C renal
M14 melanoma = test system: M14 melanoma
OVCAR-5 ovarian = test system: OVCAR-5 ovarian
SK-MEL-5 melanoma = test system: SK-MEL-5 melanoma
HOP-62 NSCLC = test system: HOP-62 NSCLC
HCT-116 colon = test system: HCT-116 colon
SR leukemia = test system: SR leukemia
SF-295 CNS = test system: SF-295 CNS
DU-145 prostate = test system: DU-145 prostate
A498 renal = test system: A498 renal
HCT-15 colon = test system: HCT-15 colon
MDA-MB-231 breast = test system: MDA-MB-231 breast
OVCAR-8 ovarian = test system: OVCAR-8 ovarian
SNB-75 CNS = test system: SNB-75 CNS
SK-MEL-2 melanoma = test system: SK-MEL-2 melanoma
HT29 colon = test system: HT29 colon
SNB-19 CNS = test system: SNB-19 CNS
ACHN renal = test system: ACHN renal
IGROV1 ovarian = test system: IGROV1 ovarian
MDA-MB-435 = test system: MDA-MB-435
HL-60(TB) leukemia = test system: HL-60(TB) leukemia
COLO 205 colon = test system: COLO 205 colon
MOLT-4 leukemia = test system: MOLT-4 leukemia
PC-3 prostate = test system: PC-3 prostate
UACC-62 melanoma = test system: UACC-62 melanoma
CAKI-1 renal = test system: CAKI-1 renal
EKVX NSCLC = test system: EKVX NSCLC
NCI-H522 lung = test system: NCI-H522 lung
HOP-92 NSCLC = test system: HOP-92 NSCLC
786-0 renal = test system: 786-0 renal
MALME-3M melanoma = test system: MALME-3M melanoma
RPMI-8226 leukemia = test system: RPMI-8226 leukemia
UO-31 renal = test system: UO-31 renal
HCC-2998 colon = test system: HCC-2998 colon
NCI-H226 lung = test system: NCI-H226 lung
KM12 colon = test system: KM12 colon
T-47D breast = test system: T-47D breast
BT-549 breast = test system: BT-549 breast
K-562 leukemia = test system: K-562 leukemia
NCI-H460 lung = test system: NCI-H460 lung
SK-MEL-28 melanoma = test system: SK-MEL-28 melanoma
CCRF-CEM leukemia = test system: CCRF-CEM leukemia
NCI/ADR-RES ovarian = test system: NCI/ADR-RES ovarian
LOX IMVI melanoma = test system: LOX IMVI melanoma
OVCAR-3 ovarian = test system: OVCAR-3 ovarian
SW-620 colon = test system: SW-620 colon
U251 CNS = test system: U251 CNS
NCI-H23 lung = test system: NCI-H23 lung
SF-268 CNS = test system: SF-268 CNS

Cn1cc(-c2nc(N)nnc2-c2c[nH]c3ccccc23)c2cc(Br)ccc21
GI50 (RXF 393 renal): 1.17 µM | TGI (RXF 393 renal): 4.4 µM | GI50 (A549 NSCLC): 1.55 µM | TGI (A549 NSCLC): 39.7 µM | GI50 (OVCAR-4 ovarian): 3.72 µM | TGI (OVCAR-4 ovarian): 21.8 µM | GI50 (MCF7 breast): 0.48 µM | TGI (MCF7 breast): 16.4 µM | GI50 (SK-OV-3 ovarian): 3.02 µM | TGI (SK-OV-3 ovarian): 18.7 µM | GI50 (SF-539 CNS): 2.17 µM | TGI (SF-539 CNS): 6.88 µM | GI50 (TK-10 renal): 6.01 µM | TGI (TK-10 renal): 34.3 µM | GI50 (UACC-257 melanoma): 7.26 µM | TGI (UACC-257 melanoma): 22.4 µM | GI50 (HS 578T breast): 1.89 µM | TGI (HS 578T breast): 9.3 µM | GI50 (SN12C renal): 5.17 µM | TGI (SN12C renal): 47.9 µM | GI50 (M14 melanoma): 0.768 µM | TGI (M14 melanoma): 8.45 µM | GI50 (OVCAR-5 ovarian): 5.9 µM | TGI (OVCAR-5 ovarian): 25.5 µM | GI50 (SK-MEL-5 melanoma): 1.58 µM | TGI (SK-MEL-5 melanoma): 9.96 µM | GI50 (HOP-62 NSCLC): 2.52 µM | TGI (HOP-62 NSCLC): 19.9 µM | GI50 (HCT-116 colon): 0.518 µM | TGI (HCT-116 colon): 11.9 µM | GI50 (SR leukemia): 0.312 µM | TGI (SR leukemia): 2.43 µM | GI50 (SF-295 CNS): 0.922 µM | TGI (SF-295 CNS): 11.4 µM | GI50 (DU-145 prostate): 3.26 µM | TGI (DU-145 prostate): 14.8 µM | GI50 (A498 renal): 1.19 µM | TGI (A498 renal): 5.7 µM | GI50 (HCT-15 colon): 0.552 µM | TGI (HCT-15 colon): 16.4 µM | GI50 (MDA-MB-231 breast): 4.49 µM | TGI (MDA-MB-231 breast): 66.1 µM | GI50 (OVCAR-8 ovarian): 3.62 µM | TGI (OVCAR-8 ovarian): 69.5 µM | GI50 (SNB-75 CNS): 0.46 µM | TGI (SNB-75 CNS): 4.54 µM | GI50 (SK-MEL-2 melanoma): 1.9 µM | TGI (SK-MEL-2 melanoma): 13.6 µM | GI50 (HT29 colon): 0.483 µM | TGI (HT29 colon): 5.38 µM | GI50 (SNB-19 CNS): 2.05 µM | TGI (SNB-19 CNS): 22.7 µM | GI50 (ACHN renal): 3.57 µM | TGI (ACHN renal): 20 µM | GI50 (IGROV1 ovarian): 0.9 µM | TGI (IGROV1 ovarian): 24.2 µM | GI50 (MDA-MB-435): 0.312 µM | TGI (MDA-MB-435): 11.8 µM | GI50 (HL-60(TB) leukemia): 0.451 µM | TGI (HL-60(TB) leukemia): 7.69 µM | GI50 (COLO 205 colon): 0.877 µM | TGI (COLO 205 colon): 7.13 µM | GI50 (MOLT-4 leukemia): 0.684 µM | TGI (MOLT-4 leukemia): 4.05 µM | GI50 (PC-3 prostate): 2.12 µM | TGI (PC-3 prostate): 64 µM | GI50 (UACC-62 melanoma): 0.988 µM | TGI (UACC-62 melanoma): 18.9 µM | GI50 (CAKI-1 renal): 0.536 µM | TGI (CAKI-1 renal): 13.6 µM | GI50 (EKVX NSCLC): 2.62 µM | TGI (EKVX NSCLC): 23.4 µM | GI50 (NCI-H522 lung): 0.646 µM | TGI (NCI-H522 lung): 8.03 µM | GI50 (HOP-92 NSCLC): 2.62 µM | TGI (HOP-92 NSCLC): 22.4 µM | GI50 (786-0 renal): 2.65 µM | TGI (786-0 renal): 17.6 µM | GI50 (MALME-3M melanoma): 6.12 µM | TGI (MALME-3M melanoma): 32.2 µM | GI50 (RPMI-8226 leukemia): 2.35 µM | TGI (RPMI-8226 leukemia): 46.2 µM | GI50 (UO-31 renal): 1.99 µM | TGI (UO-31 renal): 20.8 µM | GI50 (HCC-2998 colon): 2.7 µM | TGI (HCC-2998 colon): 13.7 µM | GI50 (NCI-H226 lung): 2.39 µM | TGI (NCI-H226 lung): 15.9 µM | GI50 (KM12 colon): 0.591 µM | TGI (KM12 colon): 11.9 µM | GI50 (T-47D breast): 0.783 µM | TGI (T-47D breast): 24.4 µM | GI50 (BT-549 breast): 1.53 µM | TGI (BT-549 breast): 14.5 µM | GI50 (K-562 leukemia): 0.393 µM | TGI (K-562 leukemia): 13.2 µM | GI50 (NCI-H460 lung): 0.551 µM | TGI (NCI-H460 lung): 12.2 µM | GI50 (SK-MEL-28 melanoma): 6.98 µM | TGI (SK-MEL-28 melanoma): 22.5 µM | GI50 (CCRF-CEM leukemia): 2.21 µM | TGI (CCRF-CEM leukemia): 13.5 µM | GI50 (NCI/ADR-RES ovarian): 1.67 µM | TGI (NCI/ADR-RES ovarian): 18.6 µM | GI50 (LOX IMVI melanoma): 1.37 µM | TGI (LOX IMVI melanoma): 27.4 µM | GI50 (OVCAR-3 ovarian): 0.507 µM | TGI (OVCAR-3 ovarian): 4.94 µM | GI50 (SW-620 colon): 0.67 µM | TGI (SW-620 colon): 15.9 µM | GI50 (U251 CNS): 2.26 µM | TGI (U251 CNS): 15.2 µM | GI50 (NCI-H23 lung): 2.21 µM | TGI (NCI-H23 lung): 17.2 µM | GI50 (SF-268 CNS): 2.51 µM | TGI (SF-268 CNS): 18.6 µM
